Measured values published in ChEMBL document CHEMBL4609985, “Superior inhibition of influenza virus hemagglutinin-mediated fusion by indole-substituted spirothiazolidinones” (Bioorg Med Chem, 2020).

Legend:
[1] = Cytotoxicity against MDCK cells assessed as reduction in cell viability after 4 days by MTS assay; type: cell-based, Canis lupus familiaris; details: dog
[2] = tested on: Influenza A virus H3N2; assay: Antiviral activity against Influenza A virus H3N2 A/HK/7/87 infected in MDCK cells assessed as reduction in virus induced cytopathic effect after 4 days by microscopy based method; type: functional, organism-based; details: A/HK/7/87, MDCK, 96 h
[3] = tested on: Influenza A virus H3N2; assay: Antiviral activity against IInfluenza A virus H3N2 A/HK/7/87 infected in MDCK cells after 4 days by MTS assay; type: functional, organism-based; details: A/HK/7/87, MDCK, 96 h
[4] = Cytotoxicity against MDCK cells assessed as minimum cytotoxic concentration after 4 days by MTS assay; type: cell-based, Canis lupus familiaris; details: dog
[5] = Inhibition of influenza H3N2 A/X-31 hemagglutinin 3 expressed in HeLa cells assessed as polykaryon formation preincubated for 15 mins and further incubated for 15 mins with acidic buffer containing compounds at pH 5.2 by giemsa staining based microscopic analysis; type: cell-based, Influenza A virus (A/X-31(H3N2)); details: Influenza A virus
[6] = Selectivity index, ratio of CC50 for MDCK cells to EC50 for antiviral activity against Influenza H3N2 A/HK/7/87 infected in MDCK cells after 4 days by MTS assay; type: toxicity, cell-based; details: dog, read-out: Ratio CC50/EC50

With Cc1nc2sccn2c1C(=O)NN1C(=O)C(C)SC12CCC(C)CC2 (centres undefined) the CC50 at 96 h [1] was > 100 µM, the EC50 [2] was 5 µM and the EC50 [3] was 3.2 µM. The MCC at 96 h [4] was ≥ 100 µM, the EC50 [5] was 1.1 µM and the selectivity ratio at 96 h [6] was > 31.
With Cc1c(C(=O)NN2C(=O)C(C)SC23CCCCC3C)[nH]c2ccc(Cl)cc12 (centres undefined) the CC50 at 96 h [1] was 88 µM, the EC50 [2] was > 100 µM and the EC50 [3] was > 100 µM. For the same compound, the MCC at 96 h [4] was ≥ 20 µM.
For Cc1c(C(=O)NN2C(=O)C(C)SC23CCC(c2ccccc2)CC3)[nH]c2ccc(Cl)cc12 (centres undefined), the CC50 at 96 h [1] was 2.3 µM, the EC50 [2] was > 100 µM and the EC50 [3] was > 100 µM. The MCC at 96 h [4] was 1 µM.
With Cc1c(C(=O)NN2C(=O)C(C)SC23CCCC3)[nH]c2ccc(Cl)cc12 (centres undefined) the CC50 at 96 h [1] was > 100 µM, the EC50 [2] was > 100 µM and the EC50 [3] was > 100 µM. For the same compound, the MCC at 96 h [4] was > 100 µM.
For Cc1c(C(=O)NN2C(=O)CSC23CCCCC3C)[nH]c2ccc(Cl)cc12 (centres undefined), the CC50 at 96 h [1] was > 100 µM, the EC50 [2] was > 100 µM and the EC50 [3] was > 100 µM. The MCC at 96 h [4] was ≥ 20 µM.
In the case of Cc1c(C(=O)NN2C(=O)C(C)SC23CCC(C(C)(C)C)CC3)[nH]c2ccc(Cl)cc12 (centres undefined), the CC50 at 96 h [1] is reported as 0.9 µM, the EC50 [2] is reported as > 100 µM and the EC50 [3] is reported as > 100 µM. For the same compound, the MCC at 96 h [4] was ≥ 4 µM.
Cc1c(C(=O)NN2C(=O)C(C)SC23CCC(C)CC3)[nH]c2ccc(Cl)cc12 (centres undefined) showed a CC50 at 96 h [1] of 2.8 µM, an EC50 [2] of 0.063 µM and an EC50 [3] of 0.045 µM. The MCC at 96 h [4] was 0.87 µM, the EC50 [5] was 2.1 µM and the selectivity ratio at 96 h [6] was 62.
For Cc1c(C(=O)NN2C(=O)CSC23CC(C)CC(C)(C)C3)[nH]c2ccc(Cl)cc12 (centres undefined), the CC50 at 96 h [1] was > 100 µM, the EC50 [2] was > 100 µM and the EC50 [3] was > 100 µM. For the same compound, the MCC at 96 h [4] was > 100 µM.
In the case of Cc1c(C(=O)NN2C(=O)C(C)SC23CC(C)CC(C)(C)C3)[nH]c2ccc(Cl)cc12 (centres undefined), the CC50 at 96 h [1] is reported as 85 µM, the EC50 [2] is reported as > 100 µM and the EC50 [3] is reported as > 100 µM. The MCC at 96 h [4] was 20 µM.
In the case of Cc1c(C(=O)NN2C(=O)C(C)SC23CCCC(C)C3)[nH]c2ccc(Cl)cc12 (centres undefined), the CC50 at 96 h [1] is reported as 33 µM, the EC50 [2] is reported as 0.031 µM and the EC50 [3] is reported as 0.023 µM. For the same compound, the MCC at 96 h [4] was ≥ 4 µM, the EC50 [5] was 1.4 µM and the selectivity ratio at 96 h [6] was 1440.
In the case of Cc1c(C(=O)NN2C(=O)CSC23CCCC(C)C3)[nH]c2ccc(Cl)cc12 (centres undefined), the CC50 at 96 h [1] is reported as > 100 µM, the EC50 [2] is reported as > 100 µM and the EC50 [3] is reported as > 100 µM. The MCC at 96 h [4] was ≥ 100 µM.
For CCCC1CCC2(CC1)SC(C)C(=O)N2NC(=O)c1[nH]c2ccc(Cl)cc2c1C (centres undefined), the CC50 at 96 h [1] was 1.9 µM, the EC50 [2] was > 100 µM and the EC50 [3] was > 100 µM. The MCC at 96 h [4] was 0.8 µM.
With Cc1c(C(=O)NN2C(=O)CSC23CCC(C(C)(C)C)CC3)[nH]c2ccc(Cl)cc12 (centres undefined) the CC50 at 96 h [1] was 2.1 µM, the EC50 [2] was > 100 µM and the EC50 [3] was > 100 µM. It also gave an MCC at 96 h [4] of 0.8 µM.
For Cc1c(C(=O)NN2C(=O)CSC23CCC(C)CC3)[nH]c2ccc(Cl)cc12 (centres undefined), the CC50 at 96 h [1] was > 100 µM, the EC50 [2] was > 100 µM and the EC50 [3] was > 100 µM. The MCC at 96 h [4] was ≥ 100 µM.
With Cc1c(C(=O)NN2C(=O)CSC23CCCC3)[nH]c2ccc(Cl)cc12 the CC50 at 96 h [1] was > 100 µM, the EC50 [2] was > 100 µM and the EC50 [3] was > 100 µM. For the same compound, the MCC at 96 h [4] was > 100 µM.
For CCCC1CCC2(CC1)SCC(=O)N2NC(=O)c1[nH]c2ccc(Cl)cc2c1C (centres undefined), the CC50 at 96 h [1] was 1.3 µM, the EC50 [2] was > 100 µM and the EC50 [3] was > 100 µM. It also gave an MCC at 96 h [4] of 0.8 µM.
For Cc1c(C(=O)NN2C(=O)CSC23CCC(c2ccccc2)CC3)[nH]c2ccc(Cl)cc12 (centres undefined), the CC50 at 96 h [1] was 2.4 µM, the EC50 [2] was > 100 µM and the EC50 [3] was > 100 µM. It also gave an MCC at 96 h [4] of 5 µM.
Work on CCC1CCC2(CC1)SC(C)C(=O)N2NC(=O)c1[nH]c2ccc(Cl)cc2c1C (centres undefined) yielded a CC50 at 96 h [1] of 1.5 µM, an EC50 [2] of 0.0012 µM and an EC50 [3] of 0.00077 µM. The MCC at 96 h [4] was 3 µM, the EC50 [5] was 0.88 µM and the selectivity ratio at 96 h [6] was 1950.
With CCC1CCC2(CC1)SCC(=O)N2NC(=O)c1[nH]c2ccc(Cl)cc2c1C (centres undefined) the CC50 at 96 h [1] was 94 µM, the EC50 [2] was > 100 µM and the EC50 [3] was > 100 µM. The MCC at 96 h [4] was ≥ 4 µM.
In the case of Cc1c(C(=O)NN2C(=O)CSC23CCCCC3)[nH]c2ccc(Cl)cc12, the CC50 at 96 h [1] is reported as > 100 µM, the EC50 [2] is reported as > 100 µM and the EC50 [3] is reported as > 100 µM. For the same compound, the MCC at 96 h [4] was > 100 µM.
Compound Cc1c(C(=O)NN2C(=O)C(C)SC23CCCCC3)[nH]c2ccc(Cl)cc12 (centres undefined) has a CC50 at 96 h [1] of 5.8 µM, an EC50 [2] of 0.085 µM and an EC50 [3] of 0.063 µM. The MCC at 96 h [4] was ≥ 4 µM, the EC50 [5] was 1.3 µM and the selectivity ratio at 96 h [6] was 92.
For NC12CC3CC(CC(C3)C1)C2 [AMANTADINE], the CC50 at 96 h [1] was > 200 µM, the EC50 [2] was 3.8 µM and the EC50 [3] was 1.2 µM. For the same compound, the MCC at 96 h [4] was > 200 µM.
Work on CC(C)(C)c1cc(O)ccc1O [E319] yielded an EC50 [5] of 9.9 µM.
In the case of NC(=O)c1ncn([C@@H]2O[C@H](CO)[C@@H](O)[C@H]2O)n1 [RIBAVIRIN], the CC50 at 96 h [1] is reported as > 100 µM, the EC50 [2] is reported as 8.4 µM and the EC50 [3] is reported as 4.6 µM. The MCC at 96 h [4] was ≥ 100 µM.
In the case of CCOC(=O)c1c(CSc2ccccc2)n(C)c2cc(Br)c(O)c(CN(C)C)c12 [UMIFENOVIR], the EC50 [5] is reported as 40 µM.
